Laboratory results reported in ChEMBL document CHEMBL1201862, “PubChem BioAssay data set” (2004).
Where “and” joins values, the source holds several entries; their conditions need not be identical. Identical values can stand only once.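 Exposure lasted 48 hours, with cells grown in 96-well plates and compounds tested at five concentrations. At the GI50, growth is halved.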 Calls of active or inactive are those of the source. Cut-off read from the data, not from the text of the source: active = GI50 up to about 1.1 µM and inactive = higher.

Legend:
[1] = test system: Hs-578T; assay: inhibition of tumour cell growth, NCI panel, 48 h
[2] = test system: MCF7; assay: inhibition of tumour cell growth, NCI panel, 48 h

Row | SMILES | GI50 [1] | GI50 [2]
1 | O=C(O)CCC(=O)Nc1ccc2ccccc2c1 | > 100 µM (inactive) | > 100 µM (inactive)
2 | COc1ccc(-n2c(=O)c3nc(S)[nH]c3n(-c3ccc(OC)cc3)c2=S)cc1 |  | > 100 µM (inactive)
3 | Cc1cc2ncn(CC(=O)O)c2cc1C | > 100 µM (inactive) | > 100 µM (inactive)
4 | CC(=O)C1C(=O)C(C(C)=O)C2C3C=CC(C3)C12 (stereo not given) | > 100 µM (inactive) | > 100 µM (inactive)
5 | COC(=O)c1c(C(=O)OC)c2ccccn2c1-c1cc(C)cc2c1C(=O)C=CC2=O | 12.9 µM (inactive) | 
6 | COc1cc(OC)c(/C=C/c2cnc3ccccc3n2)c(OC)c1 | > 10 µM (inactive) | > 10 µM (inactive)
7 | Cc1ccccc1-n1c(=O)nc2n(-c3ccc(C(C)(C)C)cc3)c3ccccc3cc-2c1=O | 24.7 µM (inactive) | 22.9 µM (inactive)
8 | O=P1(c2ccccc2)c2ccccc2CCc2ccccc21 | > 100 µM (inactive) | > 100 µM (inactive)
9 | O=C(CN1CCOCC1)CC(O)(C(F)(F)F)C(F)(F)F | 35.6 µM (inactive) | > 100 µM (inactive)
10 | N#Cc1c(N)nc2c(/N=N\c3ccccc3)c(N)nn2c1Nc1ccccc1 | 1.06 µM (active) | 1.51 µM (inactive)
11 | NC(=O)C(=O)C(c1ccccc1)S(=O)(=O)Cc1ccccc1 (stereo not given) |  | > 100 µM (inactive)
12 | COc1cc(C2C3=C(COC3=O)Oc3cc4c(cc32)OCO4)ccc1OC(C)=O (stereo not given) | 0.112 µM (active) | 0.29 µM (active)
13 | O=C(O)CSc1cc(-c2ccccc2)nc2ccccc12 | 19.4 µM (inactive) | 
14 | COc1ccccc1/C=C(/C)[N+](=O)[O-] | 4.55 µM (inactive) and 4.24 µM (inactive) | 
15 | O=c1c2cc(-c3ccccc3)cnc2sn1-c1ccc(Oc2ccccc2)cc1 |  | 52.5 µM (inactive)
16 | ClCCN1CCO/C1=N/c1ccc2c(c1)CCCC2 | 13.9 µM (inactive) | 
17 | CC[C@@H]1/C=C/C=C/C[C@H](C)[C@@H](O)[C@](C)(O)C(=O)[C@H](C)[C@@H](O)[C@H](C)C(=O)[C@H](C)[C@@H](O)[C@H](C)/C=C/C(=O)O[C@H]2[C@@H](C)[C@@H](CC1)O[C@]1(O[C@H](CC(C)O)[C@H](C)CC1=O)[C@@H]2C (stereo not given in full) | 5.36 µM (inactive) | < 0.0025 µM (active)
18 | CC(C)(C)C1=C(Br)C(F)(C(C)(C)C)OP1(=O)c1ccccc1 (stereo not given) | 29.6 µM (inactive) | 15.8 µM (inactive)
19 | COC(=O)c1cc2c(c3c1CC(Cc1ccccc1)C3=O)CCC2 (stereo not given) | 45.9 µM (inactive) | 69.7 µM (inactive)
20 | CS(=O)(=O)c1nc(-c2cc3c(c(S(C)(=O)=O)n2)CCC3)cc2c1CCCC2 | 2.55 µM (inactive) | 
21 | O=c1c2sc(=S)n(-c3ccc(F)cc3)c2ncn1/N=C/c1ccc(F)cc1F | 29.1 µM (inactive) | 41.5 µM (inactive)
22 | COc1ccc(/N=N/C(=O)NC(CC(C)C)C(=O)NCC(=O)O)cc1 (stereo not given) | 89.3 µM (inactive) | 13.2 µM (inactive)
23 | C1=C2C3=[N+](CCCC3)CC2Cc2ccsc21 (stereo not given) | > 100 µM (inactive) | > 100 µM (inactive)
24 | CC(C)=CCC[C@@H](C)C1=C(O)C(=O)C(C)=C(c2c(I)c(=O)n(C)c(=O)n2C)C1=O | 76.6 µM (inactive) | > 100 µM (inactive)
25 | COc1cc(C(=O)Oc2c(C#N)sc3c2c(=O)n(-c2ccccc2)c(=S)n3-c2ccccc2)cc(OC)c1OC | 8.26 µM (inactive) | 22.9 µM (inactive)
26 | CN1C(=O)c2ccccc2NC(=O)C12O[C@@H]2c1cccc(O)c1 (stereo not given in full) | > 100 µM (inactive) | > 100 µM (inactive)
27 | C1C2CC3CC1CC(Nc1nc(NC45CC6CC(CC(C6)C4)C5)nc(NC45CC6CC(CC(C6)C4)C5)n1)(C2)C3 | 43.4 µM (inactive) | 55.1 µM (inactive)
28 | CS(=O)(=O)O[C@H]1[C@H](O)c2ccccc2[C@@H]1N=[N+]=[N-] |  | > 100 µM (inactive)
29 | COC(=O)[C@H](Cc1c[nH]c2ccccc12)NP(=O)(O)OC[C@H]1O[C@@H](n2cc(C)c(=O)[nH]c2=O)C[C@@H]1N=[N+]=[N-] | > 100 µM (inactive) | > 100 µM (inactive)
30 | CC(=O)O[C@H]1C(=O)[C@@]2(C)C(C(OC(=O)c3ccccc3)[C@]3(O)CC(OC(=O)C(O)C(NC(=O)c4cccc(Cl)c4)c4ccccc4)C(C)=C1C3(C)C)[C@]1(OC(C)=O)CO[C@@H]1C[C@@H]2O (stereo not given in full) |  | 0.344 µM (active)
